Measurements from ChEMBL document CHEMBL5038592, “Discovery of MK-8153, a Potent and Selective ROMK Inhibitor and Novel Diuretic/Natriuretic” (J Med Chem, 2021).

Tests used:
[1] = Terminal half life in rhesus monkey at 2 mg/kg, po or 1 mg/kg, iv; assay type: ADME, organism-based, Macaca mulatta; conditions: in vivo, read-out: beta t1/2 (converted)
[2] = Drug metabolism in rhesus monkey hepatocytes assessed as N-acetylglucosamine conjugate metabolite formation by LC/MS analysis; assay type: ADME, cell-based, Macaca mulatta, Hepatocyte
[3] = molecular target: T1, ATP-sensitive inward rectifier potassium channel 1 (Homo sapiens, UniProt P48048); assay: Inhibition of human ROMK expressed in CHO cells by whole cell voltage clamp electrophysiology assay; assay type: cell-based
T1 sequence (P48048 whole entry): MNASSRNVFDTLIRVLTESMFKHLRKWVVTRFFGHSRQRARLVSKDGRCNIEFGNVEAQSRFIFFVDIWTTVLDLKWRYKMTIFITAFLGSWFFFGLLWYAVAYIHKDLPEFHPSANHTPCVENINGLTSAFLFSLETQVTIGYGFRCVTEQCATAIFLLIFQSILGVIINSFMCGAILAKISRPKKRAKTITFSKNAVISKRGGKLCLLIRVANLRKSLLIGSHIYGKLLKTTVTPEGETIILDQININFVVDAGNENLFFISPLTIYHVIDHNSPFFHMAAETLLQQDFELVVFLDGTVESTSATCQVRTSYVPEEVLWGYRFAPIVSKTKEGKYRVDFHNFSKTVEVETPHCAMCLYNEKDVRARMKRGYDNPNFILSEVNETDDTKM

Rattus norvegicus [4] = assay: Antihypertensive activity in spontaneous hypertensive rat model assessed as decrease in systolic blood pressure at 3 mg/kg, po QD observed for 3 days; assay type: functional, organism-based; conditions: time 3.0 day
[5] = Terminal half life in Wistar Han rat at 2 mg/kg, po or 1 mg/kg, iv; assay type: ADME, organism-based; conditions: in vivo, read-out: beta t1/2 (converted)
[6] = AUC (0 to infinity) in Beagle dog at 2 mg/kg, po or 1 mg/kg, iv; assay type: ADME, organism-based, Canis lupus familiaris; design: dose 2 mg/kg; conditions: in vivo
Cytochrome P450 2C9 = Cytochrome P450 2C9 (Homo sapiens, UniProt P11712); assay: Inhibition of CYP2C9 (unknown origin)
[7] = Volume of distribution at steady state in Beagle dog at 2 mg/kg, po or 1 mg/kg, iv; assay type: ADME, organism-based, Canis lupus familiaris; conditions: in vivo, read-out: Vdss
[8] = Tmax in Wistar Han rat at 2 mg/kg, po or 1 mg/kg, iv; assay type: ADME, organism-based; conditions: in vivo
[9] = Toxicity in rat assessed as change in body weight at 5 to 300 mg/kg treated for 7 days; assay type: organism-based; conditions: in vivo, 168 h, dose 5-300 mg/kg, time 7 day
[10] = Apparent permeability in pig LLC-PK1 cells
[11] = Toxicity in rat assessed as histological changes at 5 to 300 mg/kg treated for 7 days; assay type: organism-based; conditions: in vivo, 168 h, dose 5-300 mg/kg, time 7 day
Rattus norvegicus [12] = assay: Diuretic activity in orally dosed spontaneous hypertensive rat assessed as increase in sodium excretion treated for 3 days measured after 0 to 4 hrs of dosing; assay type: functional, organism-based; conditions: time 3.0 day
[13] = Tmax in Beagle dog at 2 mg/kg, po or 1 mg/kg, iv; assay type: ADME, organism-based, Canis lupus familiaris; conditions: in vivo
Rattus norvegicus [14] = assay: Diuretic activity in orally dosed spontaneous hypertensive rat assessed as urine volume treated for 3 days measured after 0 to 4 hrs of dosing; assay type: functional, organism-based; conditions: time 3.0 day
[15] = Volume of distribution at steady state in Wistar Han rat at 2 mg/kg, po or 1 mg/kg, iv; assay type: ADME, organism-based; conditions: in vivo, read-out: Vdss
[16] = molecular target: T2, ATP-sensitive inward rectifier potassium channel 10 (Homo sapiens, UniProt P78508); assay: Inhibition of Kir4.1 (unknown origin)
T2 sequence (P78508 whole entry): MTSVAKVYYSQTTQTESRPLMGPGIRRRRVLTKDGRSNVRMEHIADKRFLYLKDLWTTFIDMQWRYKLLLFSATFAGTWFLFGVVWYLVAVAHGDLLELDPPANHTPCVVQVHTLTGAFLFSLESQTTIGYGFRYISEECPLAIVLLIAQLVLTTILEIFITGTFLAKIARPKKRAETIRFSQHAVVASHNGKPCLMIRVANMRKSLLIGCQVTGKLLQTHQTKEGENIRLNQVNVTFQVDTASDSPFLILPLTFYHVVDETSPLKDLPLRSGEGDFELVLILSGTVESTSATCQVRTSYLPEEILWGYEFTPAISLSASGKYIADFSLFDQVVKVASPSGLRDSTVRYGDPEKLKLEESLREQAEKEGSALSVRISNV

[17] = Oral bioavailability in Beagle dog at 2 mg/kg; assay type: ADME, organism-based, Canis lupus familiaris; conditions: in vivo
[18] = AUC (0 to infinity) in Wistar Han rat at 2 mg/kg, po or 1 mg/kg, iv; assay type: ADME, organism-based; design: dose 2 mg/kg; conditions: in vivo
[19] = Effective half life in Wistar Han rat at 2 mg/kg, po or 1 mg/kg, iv; assay type: ADME, organism-based; conditions: in vivo, read-out: t1/2eff (converted)
[20] = Effective half life in rhesus monkey at 2 mg/kg, po or 1 mg/kg, iv; assay type: ADME, organism-based, Macaca mulatta; conditions: in vivo, read-out: t1/2eff (converted)
[21] = Metabolic stability in Beagle dog liver microsomes by LC/MS analysis; assay type: ADME, Canis lupus familiaris, Microsome
[22] = Drug metabolism in human hepatocytes assessed as metabolite formation by LC/MS analysis; assay type: ADME, cell-based, Hepatocyte

Cytochrome P450 2C9, sequence (P11712 whole entry): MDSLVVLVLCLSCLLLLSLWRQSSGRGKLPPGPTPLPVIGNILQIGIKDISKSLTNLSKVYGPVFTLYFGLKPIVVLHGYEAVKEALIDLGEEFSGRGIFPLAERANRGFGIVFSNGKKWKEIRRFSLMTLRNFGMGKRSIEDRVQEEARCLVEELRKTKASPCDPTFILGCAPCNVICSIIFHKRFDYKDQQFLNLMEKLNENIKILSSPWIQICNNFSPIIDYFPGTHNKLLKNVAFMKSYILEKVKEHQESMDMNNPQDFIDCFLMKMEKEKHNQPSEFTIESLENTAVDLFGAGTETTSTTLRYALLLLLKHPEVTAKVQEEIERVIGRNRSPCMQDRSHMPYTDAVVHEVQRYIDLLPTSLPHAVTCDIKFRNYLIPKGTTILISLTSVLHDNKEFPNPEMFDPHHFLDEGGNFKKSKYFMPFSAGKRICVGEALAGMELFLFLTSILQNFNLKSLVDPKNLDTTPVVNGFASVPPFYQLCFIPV

## CC1=C(N2CCC3(CCN(C[C@H](O)c4ccc5c(c4C)COC5=O)CC3)C2=O)COC1=O
[1]
  half-life: 3.3 h
[2]
  Drug metabolism: Metabolite_Detected
[3]
  IC50: 0.005 µM
Rattus norvegicus [4]
  Activity: Dose-Dependent Effect
[5]
  half-life: 3.6 h
[6]
  AUC(0-inf): 15.1 µM·h
Cytochrome P450 2C9
  IC50: > 50 µM
[7]
  Vd: 5.2 L/kg
[8]
  Tmax: 0.5 h
[9]
  Activity: Non-Toxic
[10]
  Papp: 21 ×10⁻⁶ cm/s
[11]
  Activity: Non-Toxic
Rattus norvegicus [12]
  Activity: Dose-Dependent Effect
[13]
  Tmax: 0.8 h
Rattus norvegicus [14]
  Activity: Dose-Dependent Effect
[15]
  Vd: 14.7 L/kg
[16]
  IC50: > 100 µM
[17]
  bioavailability: 100%
[18]
  AUC(0-inf): 1.4 µM·h
[19]
  half-life: 1.8 h
[20]
  half-life: 1.8 h
[21]
  Stability: Stable
[22]
  Drug metabolism: Metabolite_Notdetected
